Laboratory results published in patent US20240034730A1, “PYRAZOLO DERIVATIVES AS HUMAN DIHYDROOROTATE DEHYDROGENASE (HDHODH) INHIBITORS FOR USE AS ANTIVIRALS” (DRUG DISCOVERY AND CLINIC S.R.L., priority 2020, published 2024).
In brackets after ≈: the same amount, converted by molar mass. Read-outs that look alike come from different tables or passages of the source.

How the values were obtained:
recombinant hDHODH = recombinant hDHODH (Homo sapiens (Human), UniProt Q02127); experiment: hDHODH inhibition assay (DCIP reduction); type: biochemical
[1] = Solubility assay at pH 7.4 in PBS; type: physicochemical; conditions: for Solubility in PBS: pH 7.4; for solubility at 24 h: 25 °C, pH 7.4, aqueous buffer, thermodynamic from solid
Method: Solubility assay at pH 7.4. […] The samples were shaken in an orbital shaker at 25° C. for 24 h. These suspensions were filtered through a PTFE 0.45 μm filter (VWR), and the solutions were chromatographically analyzed using a Perkin Elmer Ultra High Performance Liquid Chromatography (UHPLC) instrument, equipped with a reverse-phase (RP) C18 Phenomenex column (2.1×100 mm, 1.7 μm particle size). Gradient elution: the ratio of eluents A and B (0.1% trifluoroacetic acid in water and 0.1% trifluoroacetic acid in acetonitrile, respectively) changed linearly from 60% A-40% B to 0% A-100% B in 12 minutes, followed by 5 minutes in isocratic elution at 100% of eluent B and then 4 minutes in equilibration elution to reset the starting conditions. The flow rate was 0.5 mL/min. Standard injection volumes were either 2 or 4 μl for poorly soluble compounds. The detection system was a Perkin Elmer diode-array-detector. The wavelengths that were monitored for each compound were defined according to the compound's own absorption spectrum. Solubility, expressed as μM concentration of the saturated solution, was calculated via interpolation with external calibration curves that were obtained with solutions of each compound in acetonitrile.

[2] = pH 7.4
Method: (§1) Lipophilicity. The shake flask method was chosen to determinate logD7.4.
(§2) The partition coefficients between n-octanol and PBS at pH 7.4 (log D^7.4) were obtained using the shake-flask technique at room temperature. In the shake-flask experiments, 50 mM of phosphate buffered saline pH 7.4 was used as the aqueous phase. The organic (n-octanol) and aqueous phases were mutually saturated by shaking for 4 h. The compounds were solubilized in the buffered aqueous phase at the highest concentration compatible with solubility and appropriate amounts of n-octanol were added. The two phases were shaken for about 20 min, by which time the partitioning equilibrium of solutes had been reached, and then centrifuged (10000 rpm, 10 min).

[3] = log D (pH 7.4), shake-flask n-octanol/PBS; conditions: n-octanol/PBS pH 7.4, shake flask
Method: as §1, §2

[4] = recombinant GST-hDHODH, means ± SE of three independent experiments, read-out: hDHODH IC50 ± SE
[5] = recombinant GST-hDHODH, means ± SE of three independent experiments

Chain of recombinant hDHODH (Q02127 whole entry): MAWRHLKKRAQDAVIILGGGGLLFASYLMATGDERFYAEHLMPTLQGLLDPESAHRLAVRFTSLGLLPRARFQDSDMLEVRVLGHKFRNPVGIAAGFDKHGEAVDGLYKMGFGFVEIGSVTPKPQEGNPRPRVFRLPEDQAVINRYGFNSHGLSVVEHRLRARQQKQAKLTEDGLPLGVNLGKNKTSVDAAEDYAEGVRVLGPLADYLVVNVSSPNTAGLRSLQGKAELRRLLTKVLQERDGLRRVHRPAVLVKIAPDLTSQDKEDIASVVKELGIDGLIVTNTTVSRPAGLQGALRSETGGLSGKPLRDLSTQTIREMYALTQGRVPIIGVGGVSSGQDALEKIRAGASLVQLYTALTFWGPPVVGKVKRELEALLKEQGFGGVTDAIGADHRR

Row | SMILES | IC50 (recombinant hDHODH; [4]) [µM] | further results
1 | O=C(Nc1c(F)c(F)c(-c2cccc(F)c2)c(F)c1F)c1c(O)nn2ccccc12 [Compound 11, 2-Hydroxy-N-(2,3,3′,5,6-pentafluoro-[1,1′-biphenyl]-4-yl)pyrazolo[1,5-a]pyridine-3-carboxamide] | 0.00203 | Solubility in PBS [1]: <LOD; Log D7.4 ± SD [2]: 2.09 ± 0.04
2 | O=C(Nc1ccc(Oc2cccc(C(F)(F)F)c2)cn1)c1c(O)nn2ccccc12 [Compound 24, 2-Hydroxy-N-5-[3-(trifluoromethyl)phenoxy]piridin-2-ylpyrazolo[1,5-a]pyridine-3-carboxamide] | > 10 | 
3 | Oc1nn2ccccc2c1/N=N/c1ccc(Oc2ccccc2)cc1 [Compound 38, (E)-3-((4-phenoxyphenyl)diazinyl)pyrazolo[1,5-a]pyridin-2-ol] |  | hDHODH IC50 ± SE (recombinant hDHODH; [5]): Inactive at 1 microM
4 | O=C(Nc1c(F)c(F)c(-c2cccc(O)c2)c(F)c1F)c1c(O)nn2ccccc12 [Compound 14, 2-Hydroxy-N-(2,3,5,6-tetrafluoro-3′-hydroxy-[1,1′-biphenyl]-4-yl)pyrazolo[1,5-a]pyridine-3-carboxamide] | 0.00278 ± 0.00032 | solubility at 24 h [1]: 55 µM (≈ 23 µg/mL); Log D7.4 ± SD [2]: 1.82 ± 0.09
5 | CCC(CC)Oc1cc(Oc2ccccc2)c(C)cc1NC(=O)c1c(O)nn2ccccc12 [Compound 35, 2-Hydroxy-N-(5-methyl-2-(pentan-3-yloxy)-4-phenoxyphenyl)pyrazolo[1,5-a]pyridine-3-carboxamide] |  | IC50 (recombinant hDHODH): 6.98 ± 1.01 µM
6 | Cc1cc(NC(=O)c2c(O)nn3ccccc23)c(OC2CCC2)cc1Oc1ccccc1 [Compound 32, N-(2-cyclobutoxy-5-methyl-4-phenoxyphenyl)-2-hydroxypyrazolo[1,5-a]pyridine-3-carboxamide] | > 10 | 
7 | O=C(Nc1c(F)c(F)c(-c2cccc(OCCCO)c2)c(F)c1F)c1c(O)nn2ccccc12 [Compound 42, 2-Hydroxy-N-(2,3,5,6-tetrafluoro-3′-(3-hydroxypropoxy)-[1,1′-biphenyl]-4-yl) pyrazolo[1,5-a]pyridine-3-carboxamide] | 0.00329 ± 0.00033 | 
8 | Cc1cc(NC(=O)c2c(O)nn3ccccc23)ccc1Oc1ccccc1 [Compound 27] | 0.48 ± 0.031 | 
9 | CC(=O)COc1cccc(-c2c(F)c(F)c(NC(=O)c3c(O)nn4ccccc34)c(F)c2F)c1 [Compound 41, 2-Hydroxy-N-(2,3,5,6-tetrafluoro-3′-(2-oxopropoxy)-[1,1′-biphenyl]-4-yl) pyrazolo [1,5-a]pyridine-3-carboxamide] | 0.00082 ± 0.0001 | 
10 | O=C(Nc1c(F)c(F)c(-c2ccc(C(F)(F)F)cc2)c(F)c1F)c1c(O)nn2ccccc12 [Compound 12, 2-Hydroxy-N-(2,3,5,6-tetrafluoro-4′-(trifluoromethyl)-[1,1′-biphenyl]-4-yl)pyrazolo[1,5-a]pyridine-3-carboxamide] | 0.0718 | Solubility in PBS [1]: <LOD; Log D7.4 ± SD [2]: Insoluble
11 | CCC(C)Oc1cc(Oc2ccccc2)c(C)cc1NC(=O)c1c(O)nn2ccccc12 (centres unmarked) [Compound 33, N-(2-(Sec-butoxy)-5-methyl-4-phenoxyphenyl)-2-hydroxypyrazolo[1,5-a]pyridine-3-carboxamide] | 3.94 ± 0.797 | 
12 | O=C(Nc1ccc2[nH]ccc2c1)c1c(O)nn2ccccc12 [Compound 19, 2-Hydroxy-N-(1H-indol-5-yl)pyrazolo[1,5-a]pyridine-3-carboxamide] | > 10 | Log D7.4 ± SD [3]: 0.45 ± 0.02
13 | Cc1cc(Sc2ccncc2)c(C)cc1NC(=O)c1c(O)nn2ccccc12 [Compound 26, 2-Hydroxy-N-(2,5-dimethyl-4-(pyridin-4-ylthio)phenyl) pyrazolo[1,5-a]pyridine-3-carboxamide] | 2.21 ± 0.366 | Log D7.4 ± SD [3]: 1.76 ± 0.07
14 | CCCC(C)Oc1cc(Oc2ccccc2)c(C)cc1NC(=O)c1c(O)nn2ccccc12 (centres unmarked) [Compound 34, 2-Hydroxy-N-(5-methyl-2-(pentan-2-yloxy)-4-phenoxyphenyl) pyrazolo[1,5-a]pyridine-3-carboxamide] | 2.21 ± 0.346 | 
15 | Cc1cc(Oc2ccccc2)c(C)cc1NC(=O)c1c(O)nn2ccccc12 [Compound 18] | 0.043 ± 0.005 | 
16 | Cc1cc(NC(=O)c2c(O)nn3ccccc23)c(OC(C)C)cc1Oc1ccccc1 [Compound 31, 2-Hydroxy-N-(2-isopropoxy-5-methyl-4-phenoxyphenyl)pyrazolo[1,5-a]pyridine-3-carboxamide] | 5.2 ± 0.924 | 
17 | O=C(Nc1c(F)c(F)c(-c2cccnc2)c(F)c1F)c1c(O)nn2ccccc12 [Compound 8, 2-Hydroxy-N-(2,3,5,6-tetrafluoro-4-(pyridin-3-yl)phenyl)pyrazolo[1,5-a]pyridine-3-carboxamide] | 0.00623 | Log D7.4 ± SD [2]: 0.98 ± 0.03
18 | O=C(Nc1c(F)c(F)c(-c2ccccc2)c(F)c1F)c1c(O)nn2c(Cl)cccc12 [Compound 4, 7-Chloro-2-hydroxy-N-(2,3,5,6-tetrafluoro-[1,1′-biphenyl]-4-yl)pyrazolo[1,5-a]pyridine-3-carboxamide] | 0.0034 | Solubility in PBS [1]: <LOD; Log D7.4 ± SD [2]: 2.81 ± 0.13
19 | O=C(Nc1c(F)c(F)c(N2CCOCC2)c(F)c1F)c1c(O)nn2ccccc12 [Compound 6, 2-Hydroxy-N-(2,3,5,6-tetrafluoro-4-morpholinophenyl)pyrazolo[1,5-a]pyridine-3-carboxamide] | 0.0909 | solubility at 24 h [1]: 438 µM (≈ 180 µg/mL); Log D7.4 ± SD [2]: 0.66 ± 0.08
20 | O=C(Nc1c(F)c(F)c(-c2cccc(C(F)(F)F)c2)c(F)c1F)c1c(O)nn2ccccc12 [Compound 13, 2-Hydroxy-N-(2,3,5,6-tetrafluoro-3′-(trifluoromethyl)-[1,1′-biphenyl]-4-yl)pyrazolo[1,5-a]pyridine-3-carboxamide] | 0.00634 ± 0.00063 | Solubility in PBS [1]: <LOD; Log D7.4 ± SD [2]: 2.69 ± 0.03
21 | O=C(Nc1c(F)c(F)c(-c2cccs2)c(F)c1F)c1c(O)nn2ccccc12 [Compound 7, 2-Hydroxy-N-(2,3,5,6-tetrafluoro-4-(thiophen-2-yl)phenyl)pyrazolo[1,5-a]pyridine-3-carboxamide] | 0.00135 ± 0.00045 | 
22 | COc1cccc(-c2c(F)c(F)c(NC(=O)c3c(O)nn4ccccc34)c(F)c2F)c1 [Compound 16, 2-Hydroxy-N-(2,3,5,6-tetrafluoro-3′-methoxy-[1,1′-biphenyl]-4-yl)pyrazolo[1,5-a]pyridine-3-carboxamide] | 0.00275 ± 0.00031 | 
23 | O=C(Nc1ccc(Oc2ccccc2)cn1)c1c(O)nn2ccccc12 [Compound 23, 2-Hydroxy-N-(5-phenoxypiridin-2-yl)pyrazolo[1,5-a]pyridine-3-carboxamide] | 12 ± 1 | 
24 | O=C(Nc1c(F)c(F)c(-c2ccc(F)cc2)c(F)c1F)c1c(O)nn2ccccc12 [Compound 10, 2-Hydroxy-N-(2,3,4′,5,6-pentafluoro-[1,1′-biphenyl]-4-yl)pyrazolo[1,5-a]pyridine-3-carboxamide] | 0.0177 | Solubility in PBS [1]: <LOD; Log D7.4 ± SD [2]: Insoluble
25 | Oc1nn2ccccc2c1-c1nnc(-c2c(F)c(F)c(-c3ccccc3)c(F)c2F)o1 [Compound 39, 3-(5-(2,3,5,6-Tetrafluoro-[1,1′-biphenyl]-4-yl)-1,3,4-oxadiazol-2-yl) pyrazolo [1,5-a]pyridine-2-ol] |  | hDHODH IC50 ± SE (recombinant hDHODH; [5]): Inactive at 1 microM
26 | CC(O)COc1cccc(-c2c(F)c(F)c(NC(=O)c3c(O)nn4ccccc34)c(F)c2F)c1 (centres unmarked) [Compound 43, 2-Hydroxy-N-(2,3,5,6-tetrafluoro-3′-(2-hydroxypropoxy)-[1,1′-biphenyl]-4-yl) pyrazolo[1,5-a]pyridine-3-carboxamide] | 0.0025 ± 0.0002 | 
27 | Cc1cccc2c(C(=O)Nc3c(F)c(F)c(-c4ccccc4)c(F)c3F)c(O)nn12 [Compound 2] | 0.0043 | 
